According to PubChem BioAssay AID248 (DTP/NCI, 2004):
“And” between values parts separate entries of the source, which are not always exact repeats. Equal values may be shown once. Toxic doses and inconclusive results are not listed.

Tested on: L1210 leukemia ip in BDF1 mice, survival T/C
Assay: NCI In Vivo Anticancer Drug Screen. Data for tumor model L1210 Leukemia (intraperitoneal) in B6D2F1 (BDF1) mice
Details: endpoint: mean survival time, higher = longer survival
Procedure, shortened: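 Transplantable tumor model; survival measured in treated vs vehicle control mice. Value = treated/control.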

[1] = dose: 50.0 mg/kg/injection, schedule: Q01DX001 (ip), vehicle: carboxymethylcellulose (CMC)
[2] = dose: 100.0 mg/kg/injection, schedule: Q01DX001 (ip), vehicle: carboxymethylcellulose (CMC)
[3] = dose: 100.0 mg/kg/injection, schedule: Q01DX001 (ip), vehicle: Klucel (hydroxypropylcellulose) (HPC)
[4] = dose: 200.0 mg/kg/injection, schedule: Q01DX001 (ip), vehicle: Klucel (hydroxypropylcellulose) (HPC)
[5] = dose: 400.0 mg/kg/injection, schedule: Q01DX001 (ip), vehicle: Klucel (hydroxypropylcellulose) (HPC)
[6] = dose: 100.0 mg/kg/injection, schedule: Q01DX009 (ip), vehicle: Klucel (hydroxypropylcellulose) (HPC)
[7] = dose: 100.0 mg/kg/injection, schedule: Q04DX003 (ip), vehicle: Klucel (hydroxypropylcellulose) (HPC)
[8] = dose: 200.0 mg/kg/injection, schedule: Q01DX009 (ip), vehicle: Klucel (hydroxypropylcellulose) (HPC)
[9] = dose: 200.0 mg/kg/injection, schedule: Q04DX003 (ip), vehicle: Klucel (hydroxypropylcellulose) (HPC)
[10] = dose: 400.0 mg/kg/injection, schedule: Q04DX003 (ip), vehicle: Klucel (hydroxypropylcellulose) (HPC)
[11] = dose: 100.0 mg/kg/injection, schedule: Q01DX001 (ip), vehicle: saline with Tween-80
[12] = dose: 200.0 mg/kg/injection, schedule: Q01DX001 (ip), vehicle: saline with Tween-80
[13] = dose: 400.0 mg/kg/injection, schedule: Q01DX001 (ip), vehicle: saline with Tween-80

SMILES: CC(=O)OCC1CCC(NC(=O)N(CCCl)N=O)CC1 (stereo not given)
- T/C (dose: 3.0 mg/kg/injection, schedule: Q01DX001 (ip), vehicle: Klucel (hydroxypropylcellulose) (HPC)): 104 % of control
- T/C (dose: 5.0 mg/kg/injection, schedule: Q01DX001 (ip), vehicle: Klucel (hydroxypropylcellulose) (HPC)): 114 % of control
- T/C (dose: 8.0 mg/kg/injection, schedule: Q01DX001 (ip), vehicle: Klucel (hydroxypropylcellulose) (HPC)): 167 % of control
- T/C (dose: 12.0 mg/kg/injection, schedule: Q01DX001 (ip), vehicle: Klucel (hydroxypropylcellulose) (HPC)): 221 % of control
- T/C (dose: 18.0 mg/kg/injection, schedule: Q01DX001 (ip), vehicle: Klucel (hydroxypropylcellulose) (HPC)): 270 % of control and 316 % of control
- T/C (dose: 26.0 mg/kg/injection, schedule: Q01DX001 (ip), vehicle: Klucel (hydroxypropylcellulose) (HPC)): 316 % of control
- T/C (dose: 40.0 mg/kg/injection, schedule: Q01DX001 (ip), vehicle: Klucel (hydroxypropylcellulose) (HPC)): 208 % of control

SMILES: O=[N+]([O-])c1ccc(N/N=C/C(Br)(Br)Br)c([N+](=O)[O-])c1
- T/C [1]: 99 % of control
- T/C [2]: 94 % of control

SMILES: CCCCCCCCCCCCCC1=NCCN1CCO
- T/C (dose: 5.0 mg/kg/injection, schedule: Q01DX009 (ip), vehicle: saline): 94 % of control
- T/C (dose: 10.0 mg/kg/injection, schedule: Q01DX009 (ip), vehicle: saline): 96 % of control
- T/C (dose: 20.0 mg/kg/injection, schedule: Q01DX009 (ip), vehicle: saline): 86 % of control

SMILES: CSc1ncc(CO)c(NCc2ccco2)n1
- T/C [3]: 98 % of control
- T/C [4]: 98 % of control
- T/C [5]: 98 % of control

SMILES: CC1(C)CC(=O)CC(C)(C)ON1
- T/C (dose: 100.0 mg/kg/injection, schedule: Q04DX002 (ip), vehicle: saline with Tween-80): 99 % of control
- T/C (dose: 200.0 mg/kg/injection, schedule: Q04DX002 (ip), vehicle: saline with Tween-80): 99 % of control
- T/C (dose: 400.0 mg/kg/injection, schedule: Q04DX002 (ip), vehicle: saline with Tween-80): 99 % of control

SMILES: CCCCCCCCCCCCOC(=N)N1CCCC1
- T/C (dose: 8.8 mg/kg/injection, schedule: Q01DX Z (ip), vehicle: saline): 96 % of control
- T/C (dose: 13.3 mg/kg/injection, schedule: Q01DX Z (ip), vehicle: saline): 102 % of control
- T/C (dose: 20.0 mg/kg/injection, schedule: Q01DX Z (ip), vehicle: saline): 100 % of control

SMILES: CCC[CH2][Hg][Cl]
- T/C (dose: 6.25 mg/kg/injection, schedule: Q01DX009 (ip), vehicle: saline with Tween-80): 94 % of control
- T/C (dose: 6.25 mg/kg/injection, schedule: Q04DX003 (ip), vehicle: Klucel (hydroxypropylcellulose) (HPC)): 93 % of control
- T/C (dose: 12.5 mg/kg/injection, schedule: Q01DX009 (ip), vehicle: saline with Tween-80): 92 % of control
- T/C (dose: 12.5 mg/kg/injection, schedule: Q04DX003 (ip), vehicle: Klucel (hydroxypropylcellulose) (HPC)): 92 % of control
- T/C (dose: 25.0 mg/kg/injection, schedule: Q04DX003 (ip), vehicle: Klucel (hydroxypropylcellulose) (HPC)): 88 % of control

SMILES: CCc1cc(C(C)=O)c(CC)s1
- T/C (dose: 100.0 mg/kg/injection, schedule: Q01DX009 (sc), vehicle: olive oil, sesame oil, peanut oil): 94 % of control
- T/C (dose: 100.0 mg/kg/injection, schedule: Q04DX003 (sc), vehicle: olive oil, sesame oil, peanut oil): 104 % of control
- T/C (dose: 200.0 mg/kg/injection, schedule: Q01DX009 (sc), vehicle: olive oil, sesame oil, peanut oil): 97 % of control
- T/C (dose: 200.0 mg/kg/injection, schedule: Q04DX003 (sc), vehicle: olive oil, sesame oil, peanut oil): 100 % of control
- T/C (dose: 400.0 mg/kg/injection, schedule: Q01DX009 (sc), vehicle: olive oil, sesame oil, peanut oil): 104 % of control
- T/C (dose: 400.0 mg/kg/injection, schedule: Q04DX003 (sc), vehicle: olive oil, sesame oil, peanut oil): 109 % of control

SMILES: O=C(O)c1ccccc1N=Cc1ccc(N(CCCl)CCCl)cc1
- T/C [1]: 103 % of control
- T/C [2]: 122 % of control
- T/C (dose: 200.0 mg/kg/injection, schedule: Q01DX001 (ip), vehicle: carboxymethylcellulose (CMC)): 114 % of control
- T/C (dose: 400.0 mg/kg/injection, schedule: Q01DX001 (ip), vehicle: carboxymethylcellulose (CMC)): 111 % of control

SMILES: O=C(O)C1c2ccccc2Cc2ccccc21
- T/C [6]: 110 % of control
- T/C [7]: 103 % of control
- T/C [8]: 101 % of control
- T/C [9]: 97 % of control
- T/C [10]: 106 % of control

SMILES: N/N=C/NN=C(N)N
- T/C (dose: 15.0 mg/kg/injection, schedule: Q01DX Z (ip), vehicle: saline): 97 % of control
- T/C (dose: 30.0 mg/kg/injection, schedule: Q01DX Z (ip), vehicle: saline): 107 % of control
- T/C (dose: 60.0 mg/kg/injection, schedule: Q01DX Z (ip), vehicle: saline): 100 % of control
- T/C (dose: 120.0 mg/kg/injection, schedule: Q01DX Z (ip), vehicle: saline): 100 % of control
- T/C (dose: 120.0 mg/kg/injection, schedule: Q01DX Z (oral), vehicle: saline): 114 % of control

SMILES: CC1(C)C=CN2C(=O)C3=CCCN3C(=O)C2CC12Nc1ccccc1C2=O (stereo not given)
- T/C (dose: 100.0 mg/kg/injection, schedule: Q04DX003 (ip), vehicle: other): 111 % of control
- T/C (dose: 200.0 mg/kg/injection, schedule: Q04DX003 (ip), vehicle: other): 103 % of control
- T/C (dose: 400.0 mg/kg/injection, schedule: Q04DX003 (ip), vehicle: other): 93 % of control

SMILES: CNC(Cc1ccccc1)c1ccccc1 (stereo not given)
- T/C (dose: 25.0 mg/kg/injection, schedule: Q01DX009 (ip), vehicle: saline with Tween-80): 94 % of control
- T/C (dose: 50.0 mg/kg/injection, schedule: Q01DX009 (ip), vehicle: saline with Tween-80): 101 % of control
- T/C (dose: 100.0 mg/kg/injection, schedule: Q01DX009 (ip), vehicle: saline with Tween-80): 99 % of control

SMILES: C/C=C/S(=O)(=O)c1ccccc1
- T/C (dose: 75.0 mg/kg/injection, schedule: Q01DX001 (ip), vehicle: carboxymethylcellulose (CMC)): 100 % of control

SMILES: CC1(C)CC(C(N)=O)C(C)(C)N1O (stereo not given)
- T/C (dose: 75.0 mg/kg/injection, schedule: Q01DX009 (ip), vehicle: other): 104 % of control
- T/C (dose: 150.0 mg/kg/injection, schedule: Q01DX009 (ip), vehicle: other): 101 % of control
- T/C (dose: 300.0 mg/kg/injection, schedule: Q01DX009 (ip), vehicle: other): 100 % of control

SMILES: O=C(O)c1cc(/C=C/c2ccccc2)ccc1[N+](=O)[O-]
- T/C (dose: 100.0 mg/kg/injection, schedule: Q04DX003 (ip), vehicle: saline): 103 % of control
- T/C (dose: 200.0 mg/kg/injection, schedule: Q04DX003 (ip), vehicle: saline): 97 % of control
- T/C (dose: 400.0 mg/kg/injection, schedule: Q04DX003 (ip), vehicle: saline): 100 % of control

SMILES: CCCCCCCCCC(C)Cc1ccccc1 (stereo not given)
- T/C [11]: 100 % of control
- T/C [12]: 100 % of control
- T/C [13]: 92 % of control

SMILES: CCc1c(C/C(=N/O)C(=O)O)[nH]c(=S)[nH]c1=O
- T/C (dose: 100.0 mg/kg/injection, schedule: Q04DX003 (ip), vehicle: saline with Tween-80): 97 % of control
- T/C (dose: 200.0 mg/kg/injection, schedule: Q04DX003 (ip), vehicle: saline with Tween-80): 97 % of control
- T/C (dose: 400.0 mg/kg/injection, schedule: Q04DX003 (ip), vehicle: saline with Tween-80): 96 % of control

SMILES: S=C(N/N=C/c1ccncc1)Nc1ccccc1
- T/C [3]: 96 % of control
- T/C [6]: 97 % of control and 100 % of control
- T/C (dose: 100.0 mg/kg/injection, schedule: Q04DX002 (ip), vehicle: Klucel (hydroxypropylcellulose) (HPC)): 102 % of control and 91 % of control
- T/C [7]: 103 % of control
- T/C [4]: 100 % of control
- T/C [8]: 108 % of control
- T/C (dose: 200.0 mg/kg/injection, schedule: Q04DX002 (ip), vehicle: Klucel (hydroxypropylcellulose) (HPC)): 98 % of control and 102 % of control
- T/C [9]: 106 % of control
- T/C [5]: 98 % of control
- T/C (dose: 400.0 mg/kg/injection, schedule: Q01DX009 (ip), vehicle: Klucel (hydroxypropylcellulose) (HPC)): 94 % of control and 104 % of control
- T/C (dose: 400.0 mg/kg/injection, schedule: Q04DX002 (ip), vehicle: Klucel (hydroxypropylcellulose) (HPC)): 97 % of control and 98 % of control
- T/C [10]: 94 % of control

SMILES: CC(=O)OC1CCC2(C)C(=CCC3C2CCC2(C)C3CC3OC4(CCC(C)CN4C(C)=O)C(C)C32)C1 (stereo not given)
- T/C [11]: 98 % of control
- T/C [12]: 95 % of control
- T/C [13]: 95 % of control
